From ChEMBL document CHEMBL4052759, “Discovery of DS79182026: A potent orally active hepcidin production inhibitor” (Bioorg Med Chem Lett, 2017) come the findings set out here.

The target in data set [1] is Cyclin-dependent kinase 2 (Homo sapiens) (UniProt P24941). The data set can be described thus: Inhibition of CDK2 (unknown origin) at 0.078 uM relative to control.
The target of data set [2] is RAC-beta serine/threonine-protein kinase (Homo sapiens) (UniProt P31751). The data set can be described thus: Inhibition of AKT2 (unknown origin) at 0.078 uM relative to control.
The nature of data set [3]: Oral bioavailability in C57BL/6J mouse at 30 mg/kg by LC-MS/MS analysis. The class given is ADME, organism-based. As to conditions: in vivo.
For data set [4], the species on record is Homo sapiens. The data set can be described thus: Inhibition of PKA (unknown origin) at 0.078 uM relative to control.
Data set [5] has as its target Mitogen-activated protein kinase 1 (Homo sapiens) (UniProt P28482). The data set can be described thus: Inhibition of Erk2 (unknown origin) at 0.49 uM relative to control.
The target in data set [6] is Ribosomal protein S6 kinase alpha-1 (Homo sapiens) (UniProt Q15418). The data set can be described thus: Inhibition of RSK1 (unknown origin) at 0.49 uM relative to control.
Data set [7] has as its target Ribosomal protein S6 kinase alpha-4 (Homo sapiens) (UniProt O75676). The data set can be described thus: Inhibition of MSK2 (unknown origin) at 0.49 uM relative to control.
The test system of data set [8] is Mitogen-activated protein kinase 14 (Homo sapiens), Q16539 [T106M]. The data set can be described thus: Inhibition of SAPK2a T106M mutant (unknown origin) at 0.49 uM relative to control.
The target in data set [9] is Dual specificity tyrosine-phosphorylation-regulated kinase 4 (Homo sapiens) (UniProt Q9NR20). The data set can be described thus: Inhibition of DYRK4 (unknown origin) at 0.49 uM relative to control.
Data set [10] concerns the target Ribosomal protein S6 kinase alpha-6 (Homo sapiens) (UniProt Q9UK32). The experiment in a line: Inhibition of RSK4 (unknown origin) at 0.49 uM relative to control.
Data set [11] concerns Tyrosine-protein kinase ABL1 (Homo sapiens), P00519 [Q252H]. The data set can be described thus: Inhibition of Abl Q252H mutant (unknown origin) at 0.49 uM relative to control.
The target in data set [12] is Tyrosine-protein kinase JAK2 (Homo sapiens) (UniProt O60674). The data set can be described thus: Inhibition of JAK2 (unknown origin) at 0.49 uM relative to control.
Data set [13] addresses Serine/threonine-protein kinase DCLK2 (Homo sapiens) (UniProt Q8N568). The experiment in a line: Inhibition of DCAMKL2 (unknown origin) at 0.49 uM relative to control.
For data set [14], the target named is Ephrin type-A receptor 5 (Homo sapiens) (UniProt P54756). The experiment in a line: Inhibition of EPHA5 (unknown origin) at 0.49 uM relative to control.
Data set [15] addresses Tyrosine-protein kinase Lck (Homo sapiens) (UniProt P06239). The data set can be described thus: Inhibition of LCK (unknown origin) at 0.49 uM relative to control.
In data set [16] the target is Protein kinase C iota type (Homo sapiens) (UniProt P41743). The data set can be described thus: Inhibition of PKC-iota (unknown origin) at 0.49 uM relative to control.
In data set [17] the test system is Platelet-derived growth factor receptor alpha (Homo sapiens), P16234 [V561D]. The data set can be described thus: Inhibition of PDGFRA V561D mutant (unknown origin) at 0.49 uM relative to control.
Data set [18] has as its target Protein kinase C alpha type (Homo sapiens) (UniProt P17252). The experiment in a line: Inhibition of PKC-alpha (unknown origin) at 0.49 uM relative to control.
For data set [19], the target named is Serine/threonine-protein kinase Nek1 (Homo sapiens) (UniProt Q96PY6). The experiment in a line: Inhibition of NEK1 (unknown origin) at 0.49 uM relative to control.
The target in data set [20] is CDK6/cyclin D3 (Homo sapiens) (UniProt P30281+Q00534). The data set can be described thus: Inhibition of CDK6/CyclinD3 (unknown origin) at 0.49 uM relative to control. The class given is protein-complex assay.
In data set [21] the target is Leukocyte tyrosine kinase receptor (Homo sapiens) (UniProt P29376). The data set can be described thus: Inhibition of LTK (unknown origin) at 0.49 uM relative to control.
Data set [22] deals with Serine/threonine-protein kinase D3 (Homo sapiens) (UniProt O94806). The data set can be described thus: Inhibition of PKD3 (unknown origin) at 0.45 uM relative to control.
The target of data set [23] is MAP kinase-interacting serine/threonine-protein kinase 1 (Homo sapiens) (UniProt Q9BUB5). The experiment in a line: Inhibition of MNK1 (unknown origin) at 0.45 uM relative to control.
In data set [24] the target is Tyrosine-protein kinase Lck (Homo sapiens) (UniProt P06239). The data set can be described thus: Inhibition of LCK (unknown origin) at 0.45 uM relative to control.
For data set [25], the target named is Ephrin type-B receptor 2 (Homo sapiens) (UniProt P29323). The data set can be described thus: Inhibition of EPHB2 (unknown origin) at 0.45 uM relative to control.
For data set [26], the species on record is Homo sapiens. The experiment in a line: Inhibition of ACK (unknown origin) at 0.45 uM relative to control.
Data set [27] has as its target Protein kinase C iota type (Homo sapiens) (UniProt P41743). The experiment in a line: Inhibition of PKC-iota (unknown origin) at 0.45 uM relative to control.
In data set [28] the target is CDK4/Cyclin D3 (Homo sapiens) (UniProt P11802+P30281). The data set can be described thus: Inhibition of CDK4/CyclinD3 (unknown origin) at 0.45 uM relative to control. The class given is protein-complex assay.
Data set [29] has as its target Protein kinase C eta type (Homo sapiens) (UniProt P24723). The data set can be described thus: Inhibition of PKC-eta (unknown origin) at 0.45 uM relative to control.
The target in data set [30] is Serine/threonine-protein kinase Nek2 (Homo sapiens) (UniProt P51955). The experiment in a line: Inhibition of NEK2 (unknown origin) at 0.45 uM relative to control.
In data set [31] the target is Homeodomain-interacting protein kinase 1 (Homo sapiens) (UniProt Q86Z02). The experiment in a line: Inhibition of HIPK1 (unknown origin) at 0.45 uM relative to control.
Data set [32] deals with Serine/threonine-protein kinase Chk2 (Homo sapiens) (UniProt O96017). The experiment in a line: Inhibition of CHK2 (unknown origin) at 0.45 uM relative to control.
For data set [33], the system named is Tyrosine-protein kinase ABL1 (Homo sapiens), P00519 [G250E]. The experiment in a line: Inhibition of ABL1 G250E mutant (unknown origin) at 0.45 uM relative to control.
For data set [34], the target named is Testis-specific serine/threonine-protein kinase 1 (Homo sapiens) (UniProt Q9BXA7). The data set can be described thus: Inhibition of TSSK1 (unknown origin) at 0.45 uM relative to control.
The target of data set [35] is Aurora kinase C (Homo sapiens) (UniProt Q9UQB9). The experiment in a line: Inhibition of AurC (unknown origin) at 0.45 uM relative to control.
For data set [36], the target named is Cytoplasmic tyrosine-protein kinase BMX (Homo sapiens) (UniProt P51813). The experiment in a line: Inhibition of BMX (unknown origin) at 0.45 uM relative to control.

Consider `COC(=O)Nc1noc2cc(-c3c(-c4ccccn4)n[nH]c3C)ccc12`, for which the results for the inhibition (in data set [1]; in data set [2]; in the data set filed under Homo sapiens [4]) were -4.3%, 4% and -2.3%, respectively. Moreover, the bioavailability in data set [3] is 100%.

Consider `Cc1[nH]nc(C2CC2)c1-c1ccc2c(NC(=O)C3CC3)noc2c1`, for which the inhibition in [5] was -0.3%; in [6] it was 2.3%; in data set [7] it was -3.7%; in data set [8] it was -0.3%; in data set [9], 1.3%; in data set [10], -1.3%. Besides, the inhibition in data set [11] is 30.3%; in data set [12] it was -1.7%; in data set [13] it was 2%; in data set [14], 3%; in data set [15], 5.7%; in [16], 1%. Also, the inhibition is -0.7% in [17]; 2% in data set [18]; 0.3% in data set [19]; 1.7% in data set [20]; -3.3% in data set [21].

With `Cc1n[nH]c(C)c1-c1ccc2c(NC(=O)c3ccc(N4CCN(C)CC4)cc3)n[nH]c2c1`, the inhibition in [22] was 0.3%; in [23] it was 6.7%; in [24], 32.3%; in data set [25] it was 6.7%; in the data set listed under Homo sapiens [26] it was 13%; in [27], -6.7%. Moreover, the inhibition in [28] is -8.3%; in data set [29] it was 0.3%; in data set [30] it was 3.3%; in data set [31], 2.7%; in data set [32], 3%; in data set [33], 68%. The inhibition in data set [34] is -1%; in data set [35] it was -1%; in data set [36], 4.7%.
